Assay results reported in PubChem BioAssay AID248 (DTP/NCI, 2004).
Values joined by “and” are separate entries in the source; they are usually repeats but may differ in a detail not shown here. Identical values can stand only once. Inconclusive results and toxic doses are left out. No stated cut-off is given here; in the data, active means T/C of 150% or more; inactive means T/C below 125%.

Tested on: L1210 leukemia ip in BDF1 mice, survival T/C
Experiment: NCI In Vivo Anticancer Drug Screen. Data for tumor model L1210 Leukemia (intraperitoneal) in B6D2F1 (BDF1) mice
Settings: endpoint: mean survival time, higher = longer survival
Method in brief: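 Mice bearing the transplanted tumor received compound or vehicle. Survival of the treated group was divided by that of the vehicle-treated control group to give the ratio.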

[1] = dose: 25.0 mg/kg/injection, schedule: Q01DX001 (ip), vehicle: saline
[2] = dose: 25.0 mg/kg/injection, schedule: Q01DX009 (ip), vehicle: saline
[3] = dose: 50.0 mg/kg/injection, schedule: Q01DX001 (ip), vehicle: saline
[4] = dose: 50.0 mg/kg/injection, schedule: Q01DX009 (ip), vehicle: saline
[5] = dose: 100.0 mg/kg/injection, schedule: Q04DX003 (ip), vehicle: saline with Tween-80
[6] = dose: 200.0 mg/kg/injection, schedule: Q04DX003 (ip), vehicle: saline with Tween-80
[7] = dose: 400.0 mg/kg/injection, schedule: Q04DX003 (ip), vehicle: saline with Tween-80
[8] = dose: 100.0 mg/kg/injection, schedule: Q04DX002 (ip), vehicle: Klucel (hydroxypropylcellulose) (HPC)
[9] = dose: 200.0 mg/kg/injection, schedule: Q04DX002 (ip), vehicle: Klucel (hydroxypropylcellulose) (HPC)
[10] = dose: 100.0 mg/kg/injection, schedule: Q01DX001 (ip), vehicle: saline
[11] = dose: 200.0 mg/kg/injection, schedule: Q01DX001 (ip), vehicle: saline
[12] = dose: 400.0 mg/kg/injection, schedule: Q01DX001 (ip), vehicle: saline
[13] = dose: 100.0 mg/kg/injection, schedule: Q04DX003 (ip), vehicle: Klucel (hydroxypropylcellulose) (HPC)
[14] = dose: 200.0 mg/kg/injection, schedule: Q04DX003 (ip), vehicle: Klucel (hydroxypropylcellulose) (HPC)
[15] = dose: 400.0 mg/kg/injection, schedule: Q04DX003 (ip), vehicle: Klucel (hydroxypropylcellulose) (HPC)
[16] = dose: 100.0 mg/kg/injection, schedule: Q01DX009 (ip), vehicle: saline with Tween-80
[17] = dose: 200.0 mg/kg/injection, schedule: Q01DX009 (ip), vehicle: saline with Tween-80

Measured: T/C

COc1ccc2c(c1)c(C)cc[n+]2C
inactive: dose: 12.5 mg/kg/injection, schedule: Q01DX001 (ip), vehicle: saline 108 % of control | dose: 12.5 mg/kg/injection, schedule: Q01DX009 (ip), vehicle: saline 109 % of control | [1] 110 % of control | [2] 107 % of control | [3] 110 % of control | [4] 124 % of control

C/C(CC(O)(C(F)(F)F)C(F)(F)F)=N\Nc1ccccc1
inactive: dose: 100.0 mg/kg/injection, schedule: Q04DX003 (ip), vehicle: other 102 % of control | dose: 200.0 mg/kg/injection, schedule: Q04DX003 (ip), vehicle: other 97 % of control | dose: 400.0 mg/kg/injection, schedule: Q04DX003 (ip), vehicle: other 106 % of control

N\C([S-])=N/N=C\C(=N/N=C(\N)[S-])C(O)C(O)C(O)CO.[Ni+2] (configuration not stated)
inactive: [5] 96 % of control | [6] 94 % of control | [7] 91 % of control

O=C(O)c1scc2c1CCCC2
inactive: [5] 97 % of control | [6] 87 % of control

C=CCn1c(SCc2ccccc2)nccc1=O
inactive: [8] 111 % of control | [9] 122 % of control | dose: 400.0 mg/kg/injection, schedule: Q04DX002 (ip), vehicle: Klucel (hydroxypropylcellulose) (HPC) 108 % of control

CC1N=C1c1ccccc1 (configuration not stated)
inactive: dose: 100.0 mg/kg/injection, schedule: Q04DX002 (ip), vehicle: saline 102 % of control | dose: 200.0 mg/kg/injection, schedule: Q04DX002 (ip), vehicle: saline 115 % of control | dose: 400.0 mg/kg/injection, schedule: Q04DX002 (ip), vehicle: saline 105 % of control

Clc1ccc2[nH]c(-c3ccccc3)c(-c3ccccc3)c2c1
inactive: [10] 92 % of control | dose: 100.0 mg/kg/injection, schedule: Q01DX009 (ip), vehicle: acetone 102 % of control | [11] 89 % of control | dose: 200.0 mg/kg/injection, schedule: Q01DX009 (ip), vehicle: acetone 102 % of control | [12] 96 % of control

CC1(C)CNC2OC1NCC2(C)C
inactive: dose: 100.0 mg/kg/injection, schedule: Q01DX001 (ip), vehicle: saline sonified 112 % of control | dose: 200.0 mg/kg/injection, schedule: Q01DX001 (ip), vehicle: saline sonified 89 % of control | dose: 400.0 mg/kg/injection, schedule: Q01DX001 (ip), vehicle: saline sonified 95 % of control

COC1OC(COC(C)=O)C(OC(C)=O)C1OC(C)=O (configuration not stated)
inactive: [10] 102 % of control | [11] 104 % of control | [12] 93 % of control

COCc1ncc2cnccn12
inactive: [2] 90 % of control | [4] 103 % of control | dose: 100.0 mg/kg/injection, schedule: Q01DX009 (ip), vehicle: saline 98 % of control and 103 % of control and 91 % of control | dose: 200.0 mg/kg/injection, schedule: Q01DX009 (ip), vehicle: saline 93 % of control

NC(=S)NNC(=O)Nc1ccc(F)c(Cl)c1
inactive: dose: 12.5 mg/kg/injection, schedule: Q01DX009 (ip), vehicle: other 94 % of control | dose: 25.0 mg/kg/injection, schedule: Q01DX009 (ip), vehicle: other 93 % of control | dose: 50.0 mg/kg/injection, schedule: Q01DX009 (ip), vehicle: other 96 % of control

Oc1ccc(O)c2c1CNCC2O (configuration not stated)
inactive: [10] 97 % of control | [11] 104 % of control

O=C(NC1CCCCC1)OC/C=C\c1ccccc1
inactive: dose: 100.0 mg/kg/injection, schedule: Q01DX009 (ip), vehicle: Klucel (hydroxypropylcellulose) (HPC) 101 % of control | [13] 101 % of control | dose: 200.0 mg/kg/injection, schedule: Q01DX009 (ip), vehicle: Klucel (hydroxypropylcellulose) (HPC) 98 % of control | [14] 96 % of control | dose: 400.0 mg/kg/injection, schedule: Q01DX009 (ip), vehicle: Klucel (hydroxypropylcellulose) (HPC) 109 % of control | [15] 102 % of control

C/C(=C\Cl)CN(C)C
inactive: [5] 97 % of control | [6] 94 % of control

CCOC(=O)N1N=C([P+](c2ccccc2)(c2ccccc2)c2ccccc2)CC1(c1ccccc1)c1ccccc1
inactive: [1] 98 % of control | [3] 104 % of control | [10] 104 % of control

NC(=O)c1ccc[n+](CCF)c1
inactive: [10] 98 % of control | [11] 98 % of control | [12] 104 % of control

CCOC(=O)C1C(=O)C(N=Nc2ccc(-c3ccc(N=NC4C(=O)C(C(=O)OCC)C(c5ccc(O)c(OC)c5)C(C(=O)OCC)C4=O)cc3)cc2)C(=O)CC1c1ccc(O)c(OC)c1 (configuration not stated)
inactive: dose: 100.0 mg/kg/injection, schedule: Q01DX001 (ip), vehicle: other 96 % of control | dose: 200.0 mg/kg/injection, schedule: Q01DX001 (ip), vehicle: other 103 % of control

CCCCCCCCCCCCCCCCn1cnc2ncnc(Cl)c21
inactive: dose: 12.5 mg/kg/injection, schedule: Q01DX005 (ip), vehicle: other 100 % of control | dose: 25.0 mg/kg/injection, schedule: Q01DX005 (ip), vehicle: other 102 % of control | dose: 50.0 mg/kg/injection, schedule: Q01DX005 (ip), vehicle: other 98 % of control | dose: 100.0 mg/kg/injection, schedule: Q01DX005 (ip), vehicle: other 105 % of control | dose: 200.0 mg/kg/injection, schedule: Q01DX005 (ip), vehicle: other 100 % of control

COc1ccc(CN(N=O)c2ccc(C(=O)O)cc2)cc1
inactive: [16] 91 % of control | [5] 110 % of control | [17] 90 % of control | [6] 104 % of control | [7] 105 % of control

COC(=O)CC(CC(=O)OC)c1ccc(OC)c([N+](=O)[O-])c1
inactive: dose: 25.6 mg/kg/injection, schedule: Q04DX002 (ip), vehicle: saline with Tween-80 101 % of control | dose: 64.0 mg/kg/injection, schedule: Q04DX002 (ip), vehicle: saline with Tween-80 101 % of control | dose: 160.0 mg/kg/injection, schedule: Q04DX002 (ip), vehicle: saline with Tween-80 97 % of control | dose: 400.0 mg/kg/injection, schedule: Q04DX002 (ip), vehicle: saline with Tween-80 93 % of control

O=C(O)C1C=CC(C(=O)O)c2ccccc21 (configuration not stated)
inactive: [13] 102 % of control | [14] 96 % of control | [15] 98 % of control

O/N=C1\CCc2ccccc21
inactive: dose: 50.0 mg/kg/injection, schedule: Q04DX002 (ip), vehicle: Klucel (hydroxypropylcellulose) (HPC) 100 % of control | [8] 92 % of control | [9] 96 % of control

CC1(C)C2CCC1(C)C(O)C2=O (configuration not stated)
inactive: dose: 75.0 mg/kg/injection, schedule: Q01DX009 (ip), vehicle: saline 95 % of control | dose: 150.0 mg/kg/injection, schedule: Q01DX009 (ip), vehicle: saline 92 % of control | dose: 300.0 mg/kg/injection, schedule: Q01DX009 (ip), vehicle: saline 95 % of control

CC12CCCC(O)C1(O)CC(C(=O)O)CC2 (configuration not stated)
inactive: dose: 50.0 mg/kg/injection, schedule: Q01DX009 (ip), vehicle: saline with Tween-80 100 % of control | [16] 96 % of control | [17] 96 % of control
